# Assay results from patent publication US20230364051A1, “FORMULATIONS AND METHODS FOR IMPROVING AVIAN HEALTH” (CORNELL UNIVERSITY, priority 2022, published 2023).
# Marks after values point to notes of the source that are not given here.
# Columns and labels:
# duodenum = test: Duodenal tissue morphology examination (villi, crypts, goblet cells, Paneth cells); format: in vivo, Gallus gallus; conditions: for # Crypt Paneth Cells / Crypt Depth / Crypt Goblet Cell Diameter / Crypt Goblet Cell Number Acidic / Crypt Goblet Cell Number Mixture / Crypt Goblet Cell Number Neutral / Crypt Goblet Cell Number Total / Crypt Paneth cell Diameter / Villi Goblet Cell Diameter / Villi Goblet Cell Number Acidic / Villi Goblet Cell Number Mixture / Villi Goblet Cell Number Neutral / Villi Goblet Cell Number Total / Villus Height / Villus Surface Area / Villus Width: day 17, duodenum at hatch
# Description: Cornish-cross fertile broiler eggs (Gallus gallus, n = 39) were obtained from a commercial hatchery (Moyer’s chicks, Quakertown, PA, USA). The eggs were incubated under optimal conditions at the Cornell University Animal Science Poultry Farm Incubator [18]. […] Each group was then injected with the specific solution (1 mL per egg) with a 21-gauge needle into the amniotic fluid. Treatments in powder form were separately diluted in DI H2O. […] After injection, the injection holes were sealed with cellophane tape and the eggs were placed in hatching baskets such that each treatment was equally represented at each incubator location. Immediately upon hatch (day 21), blood was taken for hemoglobin determination and all chicks were then euthanized by CO2 exposure. The small intestine, pectoral muscle, cecum, and liver were collected, immediately frozen in liquid nitrogen, and then stored in a -80° C. freezer until analysis.
# Intestinal morphology examination was performed as was previously described. Duodenum samples were fixed in fresh 4 wt. % (v/v) buffered formaldehyde, dehydrated, cleared, and embedded in paraffin. Serial sections were cut at 5 µm and placed on glass slides. Intestinal sections were deparaffinized in xylene, rehydrated in a graded alcohol series, stained with Alcian Blue/Periodic acid-Schiff, and examined by light microscopy. The following variables were measured in the intestine: villus height, villus width, crypt depth, Paneth cell number per crypt, Paneth cell width, goblet cell number, goblet cell diameter, types of goblet cells in the villi epithelium, and types of goblet cells within the crypts. Measurements in each segment were performed with a light microscope using CellSens Standard software (Olympus, Waltham, MA, USA).
# glial cells = conditions: via ceruloplasmin and ferroportin-1; cited from earlier work
# [1] = 1.25 wt. % genistein intraamniotic
# [2] = 2.5 wt. % genistein intraamniotic
# [3] = 2.5 wt. % genistein vs no injection and H2O, p < 0.05
# [4] = 2.5 wt. % vs 1.25 wt. % genistein, p < 0.05
# [5] = both genistein treatment groups vs control groups, p < 0.05
# [6] = genistein treatment groups (1.25, 2.5 wt. %) vs no injection, H2O and inulin, p < 0.05
smiles,measurement,setting,value
"O=c1c(-c2ccc(O)cc2)coc2cc(O)cc(O)c12 [Genistein, genistein]",# Crypt Paneth Cells,duodenum; [1],2.92 ± 0.10 ^b
same,Crypt Depth,duodenum; [1],26.36 ± 0.46 ^c µm
same,Crypt Goblet Cell Diameter,duodenum; [1],2.89 ± 0.02 ^a µm
same,Crypt Goblet Cell Number Acidic,duodenum; [1],8.51 ± 0.14 ^a Unit
same,Crypt Goblet Cell Number Mixture,duodenum; [1],0.74 ± 0.06 ^d Unit
same,Crypt Goblet Cell Number Neutral,duodenum; [1],0.00 ± 0.00 ^a Unit
same,Crypt Goblet Cell Number Total,duodenum; [1],9.25 ± 0.14 ^ab Unit
same,Crypt Paneth cell Diameter,duodenum; [1],1.78 ± 0.04 ^a µm
same,Villi Goblet Cell Diameter,duodenum; [1],3.41 ± 0.03 ^b µm
same,Villi Goblet Cell Number Acidic,duodenum; [1],23.49 ± 0.67 ^a Unit
same,Villi Goblet Cell Number Mixture,duodenum; [1],1.69 ± 0.13 ^e Unit
same,Villi Goblet Cell Number Neutral,duodenum; [1],0.09 ± 0.03 ^b Unit
same,Villi Goblet Cell Number Total,duodenum; [1],25.26 ± 0.67 ^a Unit
same,Villus Height,duodenum; [1],204.18 ± 3.73 ^b µm
same,Villus Surface Area,duodenum; [1],146.97 ± 4.55 ^c mm2
same,Villus Width,duodenum; [1],44.51 ± 0.86 ^c µm
same,Crypt goblet cell diameter vs controls,"duodenum; 1.25 wt. % genistein vs all control groups, p < 0.05",significantly greater
same,Crypt Paneth cell diameter vs controls,"duodenum; 1.25 wt. % genistein vs no injection and 5 wt. % inulin, p < 0.05",significantly (p < 0.05) higher
same,Villus width vs controls,"duodenum; 1.25 wt. % genistein vs no injection and H2O, p < 0.05",significantly (p < 0.05) greater
same,# Crypt Paneth Cells,duodenum; [2],3.24 ± 0.11 ^a
same,Crypt Depth,duodenum; [2],23.65 ± 0.46 ^d µm
same,Crypt Goblet Cell Diameter,duodenum; [2],2.63 ± 0.02 ^b µm
same,Crypt Goblet Cell Number Acidic,duodenum; [2],8.81 ± 0.19 ^a Unit
same,Crypt Goblet Cell Number Mixture,duodenum; [2],0.88 ± 0.06 ^d Unit
same,Crypt Goblet Cell Number Neutral,duodenum; [2],0.00 ± 0.00 ^a Unit
same,Crypt Goblet Cell Number Total,duodenum; [2],9.68 ± 0.19 ^a Unit
same,Crypt Paneth cell Diameter,duodenum; [2],1.65 ± 0.03 ^b µm
same,Villi Goblet Cell Diameter,duodenum; [2],3.50 ± 0.03 ^a µm
same,Villi Goblet Cell Number Acidic,duodenum; [2],22.01 ± 0.51 ^b Unit
same,Villi Goblet Cell Number Mixture,duodenum; [2],2.70 ± 0.16 ^d Unit
same,Villi Goblet Cell Number Neutral,duodenum; [2],0.19 ± 0.04 ^a Unit
same,Villi Goblet Cell Number Total,duodenum; [2],24.89 ± 0.54 ^a Unit
same,Villus Height,duodenum; [2],238.22 ± 3.17 ^a µm
same,Villus Surface Area,duodenum; [2],184.13 ± 4.66 ^b mm2
same,Villus Width,duodenum; [2],48.27 ± 0.87 ^b µm
same,Crypt goblet cell diameter vs inulin,duodenum; 2.5 wt. % genistein vs 5 wt. % inulin,significantly higher
same,Villus height vs controls,duodenum; [3],significantly increased
same,Villus surface area vs controls,duodenum; [3],significantly increased
same,Villus width vs controls,duodenum; [3],significantly increased
same,"Villus height, dose comparison",duodenum; [4],significantly higher
same,"Villus surface area, dose comparison",duodenum; [4],significantly higher
same,"Villus width, dose comparison",duodenum; [4],significantly higher
same,Acidic villi goblet cell count vs controls,duodenum; [5],significantly higher
same,Neutral villi goblet cell count vs controls,duodenum; [5],significantly higher
same,Mixture villi goblet cells vs controls,"duodenum; both genistein treatment groups vs controls, p < 0.05",significantly reduced
same,Acidic crypt goblet cell count vs controls,"duodenum; both genistein treatment groups vs no injection, H2O and inulin, p < 0.05",significantly higher
same,Total crypt goblet cell count vs controls,"duodenum; genistein exposure vs no injection and H2O, p < 0.05",significantly higher
same,Mixed crypt goblet cells vs controls,"duodenum; genistein exposure vs no injection, H2O and inulin, p < 0.05",significantly reduced
same,Total number of villi goblet cells vs controls,duodenum; [6],significantly higher
same,Villi goblet cell diameter vs controls,duodenum; [6],significantly higher
same,Crypt depth vs control,"duodenum; genistein treatment groups vs H2O-injection group, p < 0.05",significantly lower
same,Number of crypt Paneth cells vs controls,"duodenum; genistein treatment groups vs no injection, H2O and inulin, p < 0.05",significantly greater
same,Fe export,glial cells,significantly increased
